Reference: ChEMBL document CHEMBL1138828, “A bivalent ligand (KDN-21) reveals spinal delta and kappa opioid receptors are organized as heterodimers that give rise to delta(1) and kappa(2) phenotypes. Selective targeting of delta-kappa heterodimers” (J Med Chem, 2004)

Key:
Opioid receptor [1] = target: T1, Opioid receptor (Mus musculus, UniProt P42866+P32300+P33534); test: Compound was tested for binding affinity on intact HEK cells using [3H]diprenorphine as radioligand co-expressed with delta and kappa opioid receptors; type: cell-based; details: hek293
Mus musculus [2] = test: Antagonism of delta1 opioid agonist (DPDPE)-induced antinociception upon intrathecal administration in mice at a dose of 2.5 pmol; type: functional
Mus musculus [3] = test: Antagonism of delta2 opioid agonist (deltorphin II)-induced antinociception upon intrathecal administration in mice at a dose of 2.5 pmol; type: functional
Mus musculus [4] = test: Antagonism of kappa2 opioid agonist (bremazocine)-induced antinociception upon intrathecal administration in mice at a dose of 2.5 pmol; type: functional
Opioid receptor [5] = target: T1, Opioid receptor; test: Compound was tested for binding affinity on intact HEK cells using [3H]diprenorphine as radioligand singly expressed with delta or kappa receptors.; type: cell-based; details: hek293
Mus musculus [6] = test: Antagonism of kappa1 opioid agonist (U-50,488)-induced antinociception upon intrathecal administration in mice at a dose of 2.5 pmol; type: functional
Opioid receptor [7] = target: T1, Opioid receptor; test: Compound was tested for binding affinity on intact HEK cells using [3H]diprenorphine as radioligand singly expressed with delta or kappa receptor; type: cell-based, Homo sapiens; details: hek293
Mus musculus [8] = test: Antagonism of delta2 opioid agonist (deltorphin II)-induced antinociception upon intrathecal administration in mice at a dose of 25 pmol; type: functional
Mus musculus [9] = test: Antagonism of delta1 opioid agonist (DPDPE)-induced antinociception upon intrathecal administration in mice at a dose of 25 pmol; type: functional
Mus musculus [10] = test: Antagonism of kappa2 opioid agonist (bremazocine)-induced antinociception upon intrathecal administration in mice at a dose of 25 pmol; type: functional
Opioid receptor [11] = target: T1, Opioid receptor; test: Compound was tested for binding affinity on intact HEK cells using [3H]diprenorphine as radioligand co-expressed with delta and kappa opioid receptor; type: cell-based; details: hek293
Mus musculus [12] = test: Antagonism of delta1 opioid agonist (DPDPE)-induced antinociception upon intrathecal administration in mice at a dose of 30 pmol; type: functional
Mus musculus [13] = test: Antagonism of kappa2 opioid agonist (bremazocine)-induced antinociception upon intrathecal administration in mice at a dose of 30 pmol; type: functional
Mus musculus [14] = test: Antagonism of kappa1 opioid agonist (U-50,488)-induced antinociception upon intrathecal administration in mice at a dose of 30 pmol; type: functional
Mus musculus [15] = test: Antagonism of delta2 opioid agonist (deltorphin II)-induced antinociception upon intrathecal administration in mice at a dose of 30 pmol; type: functional
Mus musculus [16] = test: Antagonism of delta2 opioid agonist (deltorphin II)-induced antinociception upon intrathecal administration in mice at a dose of 1.0 pmol; type: functional
Mus musculus [17] = test: Antagonism of kappa2 opioid agonist (bremazocine)-induced antinociception upon intrathecal administration in mice at a dose of 1.0 pmol; type: functional
Mus musculus [18] = test: Antagonism of delta1 opioid agonist (DPDPE)-induced antinociception upon intrathecal administration in mice at a dose of 1.0 pmol; type: functional
Mus musculus [19] = test: Antagonism of kappa1 opioid agonist (U-50,488)-induced antinociception upon intrathecal administration in mice at a dose of 25 pmol; type: functional
Mus musculus [20] = test: Antagonism of delta2 opioid agonist (deltorphin II)-induced antinociception upon intrathecal administration in mice at a dose of 50 pmol; type: functional
Mus musculus [21] = test: Antagonism of kappa2 opioid agonist (bremazocine)-induced antinociception upon intrathecal administration in mice at a dose of 50 pmol; type: functional
Mus musculus [22] = test: Antagonism of delta1 opioid agonist (DPDPE)-induced antinociception upon intrathecal administration in mice at a dose of 50 pmol; type: functional
Mus musculus [23] = test: Antagonism of kappa1 opioid agonist (U-50,488)-induced antinociception upon intrathecal administration in mice at a dose of 50 pmol; type: functional
Mus musculus [24] = test: Antagonism of kappa1 opioid agonist (U-50,488)-induced antinociception upon intrathecal administration in mice at a dose of 250 pmol; type: functional
Mus musculus [25] = test: Antagonism of kappa2 opioid agonist (bremazocine)-induced antinociception upon intrathecal administration in mice at a dose of 250 pmol; type: functional
Mus musculus [26] = test: Antagonism of delta2 opioid agonist (deltorphin II)-induced antinociception upon intrathecal administration in mice at a dose of 250 pmol; type: functional
Mus musculus [27] = test: Antagonism of delta1 opioid agonist (DPDPE)-induced antinociception upon intrathecal administration in mice at a dose of 250 pmol; type: functional

NC(=NCCNC(=O)CNC(=O)CNC(=O)CCC(=O)NCC(=O)NCC(=O)Nc1cccc2c3c([nH]c12)[C@@H]1Oc2c(O)ccc4c2C12CCN(CC1CC1)C(C4)[C@]2(O)C3)Nc1ccc2[nH]c3c(c2c1)C[C@@]1(O)C2Cc4ccc(O)c5c4C1(CCN2CC1CC1)[C@H]3O5 (some centres undefined)
Ki (Opioid receptor [1]): 0.0005 µM | ED50 (Mus musculus [2]): 3.4 nM mouse-1 | ED50 (Mus musculus [3]): 1.1 nM mouse-1 | ED50 (Mus musculus [4]): 1.7 nM mouse-1 | Ki (Opioid receptor [5]): 0.0588 µM

NC(=NCCCCNC(=O)CNC(=O)CNC(=O)CCC(=O)NCC(=O)NCC(=O)Nc1cccc2c3c([nH]c12)[C@@H]1Oc2c(O)ccc4c2C12CCN(CC1CC1)C(C4)[C@]2(O)C3)Nc1ccc2[nH]c3c(c2c1)C[C@@]1(O)C2Cc4ccc(O)c5c4C1(CCN2CC1CC1)[C@H]3O5 (some centres undefined)
ED50 (Mus musculus [6]): 0.6 nM mouse-1 | Ki (Opioid receptor [1]): 0.0014 µM | ED50 (Mus musculus [2]): 6.3 nM mouse-1 | ED50 (Mus musculus [3]): 2.2 nM mouse-1 | ED50 (Mus musculus [4]): 1.7 nM mouse-1 | Ki (Opioid receptor [7]): 0.0011 µM

O=C(CCC(=O)NCC(=O)NCC(=O)Nc1cccc2c3c([nH]c12)[C@@H]1Oc2c(O)ccc4c2C12CCN(CC1CC1)C(C4)[C@]2(O)C3)NCC(=O)NCC(=O)NCCCNC(=O)c1cccc2c3c([nH]c12)[C@@H]1Oc2c(O)ccc4c2C12CCN(CC1CC1)C(C4)[C@]2(O)C3 (some centres undefined)
ED50 (Mus musculus [8]): 2.4 nM mouse-1 | ED50 (Mus musculus [9]): 1.1 nM mouse-1 | ED50 (Mus musculus [10]): 2.4 nM mouse-1 | Ki (Opioid receptor [7]): 0.199 µM | Ki (Opioid receptor [11]): > 1 µM

N/C(=N\CCCCCNC(=O)CNC(=O)CNC(=O)CCC(=O)NCC(=O)NCC(=O)Nc1cccc2c3c([nH]c12)[C@@H]1Oc2c(O)ccc4c2C12CCN(CC1CC1)C(C4)[C@]2(O)C3)Nc1ccc2[nH]c3c(c2c1)C[C@@]1(O)C2Cc4ccc(O)c5c4C1(CCN2CC1CC1)[C@H]3O5 (some centres undefined)
ED50 (Mus musculus [2]): 2.2 nM mouse-1 | ED50 (Mus musculus [3]): 2.1 nM mouse-1 | ED50 (Mus musculus [4]): 4.1 nM mouse-1 | Ki (Opioid receptor [7]): 0.0033 µM | Ki (Opioid receptor [11]): 0.0048 µM

N/C(=N\CCCNC(=O)CNC(=O)CNC(=O)CCC(=O)NCC(=O)NCC(=O)Nc1cccc2c3c([nH]c12)[C@@H]1Oc2c(O)ccc4c2C12CCN(CC1CC1)C(C4)[C@]2(O)C3)Nc1ccc2[nH]c3c(c2c1)C[C@@]1(O)C2Cc4ccc(O)c5c4C1(CCN2CC1CC1)[C@H]3O5 (some centres undefined)
Ki (Opioid receptor [1]): 0.0003 µM | ED50 (Mus musculus [12]): 8 nM mouse-1 | ED50 (Mus musculus [13]): 50.4 nM mouse-1 | ED50 (Mus musculus [14]): 1.9 nM mouse-1 | ED50 (Mus musculus [15]): 1.2 nM mouse-1 | Ki (Opioid receptor [5]): 0.063 µM

N/C(=N\CCCNC(=O)CNC(=O)CNC(=O)CCC(=O)NCC(=O)NCC(=O)Nc1ccc2[nH]c3c(c2c1)C[C@]1(O)C2Cc4ccc(O)c5c4C1(CCN2CC1CC1)[C@@H]3O5)Nc1ccc2[nH]c3c(c2c1)C[C@]1(O)C2Cc4ccc(O)c5c4C1(CCN2CC1CC1)[C@@H]3O5 (some centres undefined)
Ki (Opioid receptor [1]): > 1 µM | ED50 (Mus musculus [12]): 1.1 nM mouse-1 | ED50 (Mus musculus [13]): 14.5 nM mouse-1 | ED50 (Mus musculus [15]): 1 nM mouse-1 | Ki (Opioid receptor [7]): 0.0548 µM

N/C(=N\CCCNC(=O)CNC(=O)CCC(=O)NCC(=O)Nc1cccc2c3c([nH]c12)[C@@H]1Oc2c(O)ccc4c2[C@@]12CCN(CC1CC1)[C@H](C4)[C@]2(O)C3)Nc1ccc2[nH]c3c(c2c1)C[C@@]1(O)[C@H]2Cc4ccc(O)c5c4[C@@]1(CCN2CC1CC1)[C@H]3O5
ED50 (Mus musculus [16]): 1.9 nM mouse-1 | Ki (Opioid receptor [1]): 0.315 µM | ED50 (Mus musculus [17]): 2.5 nM mouse-1 | Ki (Opioid receptor [5]): 0.0063 µM | ED50 (Mus musculus [18]): 2 nM mouse-1

O=C1/C(=C/c2ccccc2)C[C@@]2(O)[C@H]3Cc4ccc(O)c5c4[C@@]2(CCN3CC2CC2)[C@H]1O5 [BNTX]
ED50 (Mus musculus [19]): 0.9 nM mouse-1 | ED50 (Mus musculus [8]): 1 nM mouse-1 | ED50 (Mus musculus [9]): 10.6 nM mouse-1 | ED50 (Mus musculus [10]): 49.8 nM mouse-1

Oc1ccc2c3c1O[C@H]1c4oc5ccccc5c4C[C@@]4(O)[C@@H](C2)N(CC2CC2)CC[C@]314 [NALTRIBEN]
ED50 (Mus musculus [20]): 9.1 nM mouse-1 | ED50 (Mus musculus [21]): 5.8 nM mouse-1 | ED50 (Mus musculus [22]): 1 nM mouse-1 | ED50 (Mus musculus [23]): 0.8 nM mouse-1

Oc1ccc2c3c1O[C@H]1c4[nH]c5c(c4C[C@@]4(O)[C@@H](C2)N(CC2CC2)CC[C@]314)C[C@@]1(O)[C@H]2Cc3ccc(O)c4c3[C@@]1(CCN2CC1CC1)[C@H]5O4 [NORBINALTORPHIMINE]
ED50 (Mus musculus [24]): 5.3 nM mouse-1 | ED50 (Mus musculus [25]): 129.5 nM mouse-1 | ED50 (Mus musculus [26]): 1 nM mouse-1 | ED50 (Mus musculus [27]): 12.4 nM mouse-1
